Data reported in patent US20080044484A1, “Use of polymeric nanoparticles for vaccine delivery” (THE REGENTS OF THE UNIVERSITY OF CALIFORNIA, priority 2004, published 2008).

What was measured:
[1] = tested on: breast cancer cells MDA-MB-231; assay: IFNγ release by CTL (ELISA) after incubation with peptide-loaded MDA-MB-231 cells; format: cell-based, human; settings: CTL elicited with the corresponding HER2/neu peptide, 20 h, 10^5 CTL/well
Protocol: In interferon gamma release assays, 10^5 HER2/neu-specific CTL were co-incubated with 10^5 peptide-loaded tumor cells for 20 hours at 37° C. The concentration of human interferon gamma in co-cultured supernatants was then determined by ELISA.

[2] = tested on: ICP47-transfected cells MCF7; assay: Functional blockade of TAP by ICP47, 51Cr-release from peptide-loaded cells; format: cell-based, human; settings: CTL reactive against the corresponding HER2/neu peptide, 3 days after peptide loading, 6-hour assay
Text: Another aspect in these studies was to determine the mechanisms of enhancement of the antigen presentation by the fusion peptides in human tumor cell lines. Therefore, a new test system was developed utilizing the Herpes Simplex virus (HSV) protein ICP47. ICP47 is a cytoplasmic protein, which interferes with antigen presentation by physically associating with TAP within the cell and inhibiting peptide transport across the ER-membrane. By transfecting the ICP47 gene into several cancer cell lines a novel system for screening different fusion peptides for TAP-independent translocation of peptide antigens through the ER-membrane was generated.
The expression of these antigens was detected by ^51Cr-release assays.

[3] = tested on: T2 cells; assay: IFNγ release by CTL (ELISA) after incubation with peptide-loaded T2 cells; format: cell-based, human; settings: CTL elicited with the corresponding HER2/neu peptide, 20 h, 10^5 CTL/well
Protocol: In interferon gamma-release assays, 10^5 HER2/neu-specific CTL were co-incubated with 10^5 peptide-loaded T2 cells for 20 hours at 37° C. The concentrations of human interferon gamma in co-cultured supernatants were then determined by ELISA.

[4] = tested on: DU145 (HLA-A2−); assay: LDH-release cytotoxicity assay of STEAP-specific CTL against HLA-A2-negative control cell line; format: cell-based, human; settings: CTL specific for the peptide; 4-hour LDH-release assay
Protocol: (§1) It was tested whether the STEAP-derived peptides can induce potent CTL capable of recognizing and killing prostate cancer cells in vitro. CTL lines selected for their ability to lyse peptide-pulsed target cells were used as effectors in LDH-release cytotoxicity assays against the cancer cell lines. The HLA-A2+ cancer cell line LnCAP was used, with the HLA-A2−negative cancer cell line DU145 as a control (Table 29).

[5] = tested on: K562-A2 cells pulsed with STEAP peptide; assay: In vitro induction of STEAP peptide-specific CTL, LDH-release cytotoxicity assay; settings: for Percent LDH released from K562-A2 pulsed with peptide: K562-A2 pulsed with corresponding STEAP peptide 2 hours at 37° C.; for Percent LDH released from K562-A2 pulsed with peptide / Percent LDH released from K562-A2: CTL specific for the peptide, 4-hour LDH-release assay; for Induction of peptide-specific CTL: in vitro immunization of PBMC; for Percent LDH released from K562-A2: non-pulsed K562-A2 targets
[6] = tested on: K562-A2 cells pulsed with STEAP peptide; assay: Blocking of CTL lysis with antibodies BB7.2 / IVA12, LDH-release assay; format: cell-based, human; settings: for Percent LDH released from K562-A2 pulsed +IVA12: anti-HLA class II antibody IVA12 added to peptide-pulsed targets before 4-hour LDH-release assay; for Percent LDH released from K562-A2 pulsed +BB7.2: anti-HLA-A2 antibody BB7.2 added to peptide-pulsed targets before 4-hour LDH-release assay
Text: As an additional control the anti-HLA class II antibody IVA12 was used. With these experiments, it was confirmed that the STEAP-specific CTL can recognize and kill target cells in a class I-restricted fashion (Table 30).

[7] = tested on: LnCap (HLA-A2+); assay: LDH-release cytotoxicity assay of STEAP-specific CTL against prostate cancer cell line; format: cell-based, human; settings: CTL specific for the peptide; 4-hour LDH-release assay
Protocol: as §1

[8] = tested on: T2 cells; assay: 51Cr-release assay using T2 cells pulsed with HER2/neu-derived peptides as targets for CTL; settings: T2 pulsed with the peptide; percentage of specific lysis
Protocol: To probe class I presentation of cells loaded with the fusion peptides and their counterpart minimal peptides CTL recognizing the HER2/neu-derived peptides were generated. In vitro peripheral blood mononuclear cells (PBMCs) were immunized from healthy donors with these peptides in the presence of interleukin 2 and interleukin 7 using the following technique:
The next day, 12 units/ml IL-2 (Chiron) and 30 units/ml IL-7 (R & D Systems) were added to the cultures. Lymphocytes were re-stimulated weekly with peptide-pulsed autologous adherent cells as follows: First, autologous PBMC were incubated with HER2/neu peptide (10 μg/ml) for 3 h at 37° C. Nonadherent cells were then removed by a gentle wash and the adherent cells were incubated with fresh medium containing the HER2/neu peptide (10 μg/ml) for an additional 3 h at 37° C.
The induction of CTL in human PBMC was monitored in a conventional ^51Cr-labeling release assay. Briefly, peptide-pulsed TAP^−/HLA-A2.1^+ human T2 cells were incubated with 10 μg of HER2/neu peptides or the MART-1 control peptide for 90 min during labeling with ^51Cr. After washing, the target cells were added to serially diluted effectors in 96-well microplates. After a 6-h incubation at 37° C., supernatants were harvested and counted in a gamma counter. Results are expressed as the percentage of specific lysis and determined as follows: [(experimental cpm−spontaneous cpm)/(maximum cpm−spontaneous cpm)]×100.

Substance | Release of IFNγ by CTL, MDA-MB-231 cells loaded with the peptide ([1]; Day 1 after peptide loading) | Release of IFNγ by CTL, MDA-MB-231 cells loaded with the peptide ([1]; Day 3 after peptide loading) | Release of IFNγ by CTL, MDA-MB-231 cells loaded with the peptide ([1]; Day 5 after peptide loading) | Release of IFNγ by CTL, MDA-MB-231 cells loaded with the peptide ([1]; Day 8 after peptide loading) | Release of IFNγ by CTL, T2 cells loaded with the peptide ([3]; Day 1 after peptide loading) | Release of IFNγ by CTL, T2 cells loaded with the peptide ([3]; Day 3 after peptide loading) | Release of IFNγ by CTL, T2 cells loaded with the peptide ([3]; Day 5 after peptide loading) | Release of IFNγ by CTL, T2 cells loaded with the peptide ([3]; Day 8 after peptide loading) | Percent LDH released from DU145 (HLA-A2−) [4] | Percent LDH released from K562-A2 pulsed with peptide [5] | Induction of peptide-specific CTL [5] | Percent LDH released from K562-A2 [5] | Percent LDH released from K562-A2 pulsed +IVA12 [6] | Percent LDH released from K562-A2 pulsed +BB7.2 [6] | Percent LDH released from LnCap (HLA-A2+) [7] | other results
MTNKCLLQIALLLCFSTTALS IISAVVGIL (MTNKCLLQIALLLCFSTTALSIISAVVGIL) [IS-HER654-662] | 2678 pg/mL | 1974 pg/mL | 1604 pg/mL | 628 pg/mL | 2590 pg/mL | 1990 pg/mL | 1557 pg/mL | 615 pg/mL | – | – | – | – | – | – | – | Percent 51Cr Released From ICP47-transfected MCF7 cells loaded with the construct ([2]; E:T 20:1): 3%; Percent 51Cr Released From ICP47-transfected MCF7 cells loaded with the construct ([2]; E:T 40:1): 5%
MRYMILGLLALAAVCSA IISAVVGIL (MRYMILGLLALAAVCSAIISAVVGIL) [ES-HER654-662] | 2767 pg/mL | 2622 pg/mL | 1445 pg/mL | 578 pg/mL | 2667 pg/mL | 2518 pg/mL | 1245 pg/mL | 581 pg/mL | – | – | – | – | – | – | – | Percent 51Cr Released From ICP47-transfected MCF7 cells loaded with the construct ([2]; E:T 20:1): 2%; Percent 51Cr Released From ICP47-transfected MCF7 cells loaded with the construct ([2]; E:T 40:1): 3%
M R IISAVVGIL A A V C S A (MRIISAVVGILAAVCSA) [HER654-662-IN-ES] | 2727 pg/mL | 2666 pg/mL | 1708 pg/mL | 667 pg/mL | 2929 pg/mL | 2773 pg/mL | 1699 pg/mL | 671 pg/mL | – | – | – | – | – | – | – | Percent 51Cr Released From ICP47-transfected MCF7 cells loaded with the construct ([2]; E:T 20:1): 2%; Percent 51Cr Released From ICP47-transfected MCF7 cells loaded with the construct ([2]; E:T 40:1): 2%
IISAVVGIL MRYMILGLLALAAVCSA (IISAVVGILMRYMILGLLALAAVCSA) [HER654-662-ES] | 188 pg/mL | 138 pg/mL | 135 pg/mL | 93 pg/mL | 144 pg/mL | 124 pg/mL | 137 pg/mL | 83 pg/mL | – | – | – | – | – | – | – | –
FLPGVIAAI [STEAP130-138 - 1F] | – | – | – | – | – | – | – | – | −1% | 75% | induced potent peptide-specific CTL | 4% | 69% | 2% | 73% | –
YLPGVIAAI (listed as Homo sapiens) [STEAP130-138] | – | – | – | – | – | – | – | – | −1% | 63% | induced potent peptide-specific CTL | 1% | 37% | 2% | 53% | –
IISAVVGIL (listed as Homo sapiens) [HER2/neu654-662, reference compound] | 2826 pg/mL | 438 pg/mL | 131 pg/mL | 147 pg/mL | 2827 pg/mL | 429 pg/mL | 121 pg/mL | 167 pg/mL | – | – | – | – | – | – | – | 51Cr-release, E:T ratio 1.5:1 [8]: 13%; 51Cr-release, E:T ratio 3.1 [8]: 26%; 51Cr-release, E:T ratio 6:1 [8]: 38%; 51Cr-release, E:T ratio 12:1 [8]: 59%; 51Cr-release, E:T ratio 25:1 [8]: 71%; 51Cr-release, E:T ratio 50:1 [8]: 91%
YLPGVIAAV [STEAP130-138 - 9V] | – | – | – | – | – | – | – | – | −2% | 53% | induced potent peptide-specific CTL | 1% | 47% | 1% | 68% | –
FLWGVIAAV [STEAP130-138 - 1F/3W/9V] | – | – | – | – | – | – | – | – | 1% | 74% | induced potent peptide-specific CTL | 1% | 75% | 1% | 84% | –
IISAVVGIL MTNKCLLQIALLLCFSTTALS (IISAVVGILMTNKCLLQIALLLCFSTTALS) [HER654-662-IS] | 144 pg/mL | 102 pg/mL | 132 pg/mL | 86 pg/mL | 111 pg/mL | 99 pg/mL | 121 pg/mL | 76 pg/mL | – | – | – | – | – | – | – | –
HLYQGCQVV (listed as Homo sapiens) [HER2/neu48-56] | – | – | – | – | 2280 pg/mL | 488 pg/mL | 134 pg/mL | 177 pg/mL | – | – | – | – | – | – | – | 51Cr-release, E:T ratio 1.5:1 [8]: 8%; 51Cr-release, E:T ratio 3.1 [8]: 19%; 51Cr-release, E:T ratio 6:1 [8]: 33%; 51Cr-release, E:T ratio 12:1 [8]: 41%; 51Cr-release, E:T ratio 25:1 [8]: 53%; 51Cr-release, E:T ratio 50:1 [8]: 88%
CLTSTVQLV (listed as Homo sapiens) [HER2/neu789-797] | – | – | – | – | 2924 pg/mL | 317 pg/mL | 116 pg/mL | 91 pg/mL | – | – | – | – | – | – | – | 51Cr-release, E:T ratio 1.5:1 [8]: 9%; 51Cr-release, E:T ratio 3.1 [8]: 22%; 51Cr-release, E:T ratio 6:1 [8]: 31%; 51Cr-release, E:T ratio 12:1 [8]: 52%; 51Cr-release, E:T ratio 25:1 [8]: 62%; 51Cr-release, E:T ratio 50:1 [8]: 83%
LLNWAYQQV (listed as Homo sapiens) [STEAP192-200] | – | – | – | – | – | – | – | – | 18% | 56% | induced potent peptide-specific CTL | 8% | 30% | 7% | 43% | Induction of peptide-specific CTL in patients with prostate cancer ([5]; number of patients): three out of three
LLSFFFAVL (listed as Homo sapiens) [STEAP166-174] | – | – | – | – | – | – | – | – | 4% | 43% | induced potent peptide-specific CTL | 3% | 47% | 11% | 65% | –
YLWGVIAAI [STEAP130-138 - 3W] | – | – | – | – | – | – | – | – | −2% | 63% | induced potent peptide-specific CTL | 4% | 64% | 5% | 69% | –
